Earlier results, collected in patent US10272040B2, “Liposomal formulation for ocular drug delivery” (Nanyang Technological University, priority 2010, dated 2019).

Columns and labels:
[1] = other drugs in liposomes
[2] = SRC PhysProp Database

log P [2] | SMILES | Drug:Lipid mole ratio, Literature [1]
 | N.N.[Cl][Pt][Cl] [cisplatin] | 0.05
4.4 | CC(C)OC(=O)CCC/C=C\C[C@@H]1[C@@H](CC[C@@H](O)CCc2ccccc2)[C@H](O)C[C@@H]1O [latanoprost] | 
